Like-named read-outs stand apart in the source and are kept apart here. *1 amine or outer side, *2 acyl side, *3 side chain or, on linkers, in order; H or OH if unused. Where a SMILES comes first, the peptide text is derived from it. [ ]: non-standard residue; d: D form. ξ: configuration not given here. Dil(5ξ) = CCC(C)[C@@H]([C@@H](CC(=O)[*:2])OC)N(C)[*:1]; Dolaproine = CO[C@@H]([C@@H]1CCCN1)[C@@H](C)C(=O)O; NMeV = CN[C@H](C(=O)O)C(C)C; ξF = NC(Cc1ccccc1)C(=O)O

The subject of one data set is KB cancer cell line. Nature of the data set: In vitro cytotoxicity of ligand-drug conjugates (MTT). It is filed as cell-based, human. The note with it: for IC50: read-out: Cell cytotoxicity IC50. As for the experimental part: KB cancer cell line was seeded 30,000 cells per well of a 96-well plate, and after the culture for 24 hours, the drug MMAF-OMe was treated with a concentration of 0.0097˜10 nM (4-fold serial dilution), ligand-drug conjugate (B) prepared in Comparative Example 2 and ligand-drug conjugate (1) prepared in Example 2 were treated with a concentration of 0.0244-100 nM (4-fold serial dilution). The number of live cell after 72 hours was quantified by using 3-(4,5-dimethylthiazol-2-yl)-2,5-diphenyltetrazolium bromide (MTT) dye as chromogenic reagent. And then formazan reduced by oxidoreductase present in live cells were dissolved in DMSO, and quantified. […] Therefore, in the case of compound (1) to which galactoside linker is introduced, it could be confirmed that it has better efficacy compared with compound (B) to which glucuronide linker is introduced.

For the next data set, the target named is T1, folate receptor (Homo sapiens, UniProt P15328).
T1 construct: Soluble plasma membrane from KB human cancer cells were isolated; endogenous in cells; host or cells: KB human cancer cells (plasma membrane protein extract, Abcam kit ab65400)
T1 sequence (P15328 25-234): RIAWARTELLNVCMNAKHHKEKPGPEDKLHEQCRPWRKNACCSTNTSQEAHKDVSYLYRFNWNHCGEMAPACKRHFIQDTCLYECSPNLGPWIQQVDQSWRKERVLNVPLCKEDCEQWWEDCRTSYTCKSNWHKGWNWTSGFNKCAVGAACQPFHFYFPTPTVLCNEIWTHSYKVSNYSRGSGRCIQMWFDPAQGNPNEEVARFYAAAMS
As to the kind of experiment: Binding affinity of ligand-drug conjugate to folic acid receptor (competition with FA-Cy5 tracer, polarized light). The procedure:
Soluble plasma membrane from KB human cancer cells were isolated using plasma membrane protein extraction kit (ab65400) (Abcam company). […] After the preincubation for 15 minutes, FA-Cy5 tracer prepared in Preparation Example 10 was treated with a concentration of 1 nM, and after the reaction for 2 hours at 37° C., synergy2 microplate reader (BioTek company) (ex/em=635/688 nm) was used to measure polarized light.

Another data set has as its target T2, beta-galactosidase (Escherichia coli, UniProt P00722).
T2 construct: purchased Sigma G4155
Nature of the data set: in vitro. The conditions noted are these: Escherichia coli; beta-galactosidase, PBS buffer, 37° C., HPLC; read-out: hydrolysis half-life by enzyme. It is filed as biochemical, E. coli. The procedure:
(§1) In order to identify the reactivity of ligand-drug conjugate (1) of Example 2 to β-galactosidase, the difference of the reactivity to R-glucuronidase between it and ligand-drug conjugate (B) of Comparative Example 2 as a comparative material was compared.
(§2) Ligand-drug conjugate (1) of Example 2 and ligand-drug conjugate (B) of Comparative Example 2 were respectively dissolved in DMSO to a concentration of 9 mM, and then each of them was mixed with PBS buffer solution to prepare 500 μM of solution.
(§3) An enzyme reaction solution for ligand-drug conjugate (1) of Example 2 was prepared by adding 1 mg/mL enzyme solution (10 μL) to the mixed solution comprising PBS buffer solution (440 μL) and 500 μM ligand-drug conjugate (1) solution (50 μL) of Example 2, then the reaction was initiated in 37° C. of the incubator.
(§4) Beta-galactosidase enzyme (Sigma G4155) in E. coli was used for the reaction mixture comprising ligand-drug conjugate (1) of Example 2 and beta-glucuronidase enzyme (Sigma G7396) in E. coli was used for the reaction mixture comprising ligand-drug conjugate (B) of Comparative Example 2 for the comparison experiment.
(§5) That is, in the case of compound (1) to which galactoside linker is introduced, it could be confirmed that it has more rapid hydrolysis rate 6 times or more, relative to comparison compound (B) to which glucuronide linker is introduced.

The target in data set [1] is T3, Beta-galactosidase enzyme (Sigma G4155) in E. coli (Escherichia coli, UniProt P00722).
T3 construct: purchased Sigma G4155
T3 sequence (P00722 2-1024): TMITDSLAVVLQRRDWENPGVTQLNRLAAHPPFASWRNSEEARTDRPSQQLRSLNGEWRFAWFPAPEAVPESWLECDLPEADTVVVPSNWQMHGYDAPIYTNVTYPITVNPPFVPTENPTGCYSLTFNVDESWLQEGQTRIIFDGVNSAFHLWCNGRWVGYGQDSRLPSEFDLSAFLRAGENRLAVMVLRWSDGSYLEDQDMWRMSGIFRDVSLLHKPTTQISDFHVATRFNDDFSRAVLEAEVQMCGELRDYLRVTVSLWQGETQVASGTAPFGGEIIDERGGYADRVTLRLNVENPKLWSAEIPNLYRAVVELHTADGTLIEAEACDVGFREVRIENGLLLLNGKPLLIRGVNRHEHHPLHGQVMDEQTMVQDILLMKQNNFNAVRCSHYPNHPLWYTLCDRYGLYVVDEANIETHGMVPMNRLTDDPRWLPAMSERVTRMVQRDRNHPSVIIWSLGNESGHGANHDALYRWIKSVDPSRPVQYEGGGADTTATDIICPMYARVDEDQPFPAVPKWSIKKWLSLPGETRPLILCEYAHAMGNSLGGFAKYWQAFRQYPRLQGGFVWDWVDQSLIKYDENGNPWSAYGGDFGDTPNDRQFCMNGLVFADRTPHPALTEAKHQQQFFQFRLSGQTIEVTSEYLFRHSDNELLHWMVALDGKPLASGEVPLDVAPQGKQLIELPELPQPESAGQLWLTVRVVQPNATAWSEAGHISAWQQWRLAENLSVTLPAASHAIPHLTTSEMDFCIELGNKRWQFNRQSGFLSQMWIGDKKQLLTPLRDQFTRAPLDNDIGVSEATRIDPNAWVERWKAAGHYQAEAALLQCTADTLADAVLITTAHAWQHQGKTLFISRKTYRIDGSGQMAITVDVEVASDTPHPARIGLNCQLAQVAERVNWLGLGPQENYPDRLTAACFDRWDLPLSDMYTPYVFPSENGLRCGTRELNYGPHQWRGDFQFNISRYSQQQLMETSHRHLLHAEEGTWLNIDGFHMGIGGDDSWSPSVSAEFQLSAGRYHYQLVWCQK
Nature of the data set: in vitro. The note with it: (1) with beta-galactosidase versus (B) with beta-glucuronidase. It is filed as biochemical. As for the experimental part: as §1, §2, §3, §4, §5

T2 sequence (P00722 2-1024): as above

Turning to `CCC(C)[C@@H]([C@@H](CC(=O)N1CCC[C@H]1[C@H](OC)[C@@H](C)C(=O)NC(Cc1ccccc1)C(=O)OC)OC)N(C)C(=O)[C@@H](NC(=O)[C@@H](NC)C(C)C)C(C)C` (stereo partly shown) [MMAF-OMe, reference compound] (H-[NMeV]V[Dil(5ξ)][Dolaproine][ξF]-OMe), the IC50 with KB cancer cell line (Homo sapiens, KB, 72 h) turned out to be 0.38 ± 0.17 nM.

As to `CCC(C)[C@@H]([C@@H](CC(=O)N1CCC[C@H]1[C@H](OC)[C@@H](C)C(=O)N[C@@H](Cc1ccccc1)C(=O)O)OC)N(C)C(=O)[C@@H](NC(=O)[C@H](C(C)C)N(C)C(=O)OCc1ccc(O[C@@H]2O[C@H](CO)[C@H](O)[C@H](O)[C@H]2O)c(C(=O)NCCOCCOCCOCc2cn(CCC(=O)N[C@@H](CCCCN)C(=O)NCCOCCOCCNC(=O)CC[C@H](NC(=O)c3ccc(NCc4cnc5nc(N)[nH]c(=O)c5n4)cc3)C(=O)O)nn2)c1)C(C)C` (stereo partly shown) [ligand-drug conjugate (1)], the half-maximal inhibitory concentration (IC50) at folate receptor was 17.5 nM; with KB cancer cell line (KB cell, 72 hours, MTT), 0.44 ± 0.12 nM. Moreover, the “binding affinity (IC50) better than (B)” value on folate receptor (relative to ligand-drug conjugate (B)) was determined as 2.5 fold. For the same molecule, the half-life at 50 µM on beta-galactosidase stood at 34.7 min. In addition, the “more rapid hydrolysis rate relative to comparison compound (B)” value in data set [1] is given as at least 6 times. Besides, in the data set with KB cancer cell line (KB cell, relative to conjugate (B)), the “cytotoxicity better than conjugate (B)” value is on record as “about twofold”.

The values above are taken from patent US11065343B2, “Compound bearing beta-galactoside-introduced self-immolative linker” (IntoCell Inc., priority 2016, dated 2021).
